Source: ChEMBL document CHEMBL1201862, “PubChem BioAssay data set” (2004)
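Cultured in 96-well plates, cells were exposed to test compound for 48 hours across five concentrations. The concentration for 50% growth inhibition is given as GI50.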 The source made the active and inactive calls. Cut-off read from the data, not from the text of the source: active = GI50 up to about 1.1 µM and inactive = higher.

Tests used:
Assay in all cases: NCI tumour cell line growth inhibition, 48 h
786-0 = system: 786-0
NCI-H460 = system: NCI-H460
LOX IMVI = system: LOX IMVI
SF-268 = system: SF-268
NCI-H522 = system: NCI-H522
HL-60 = system: HL-60
U-251 = system: U-251
SK-OV-3 = system: SK-OV-3
OVCAR-8 = system: OVCAR-8
SK-MEL-5 = system: SK-MEL-5
RXF 393 = system: RXF 393
OVCAR-4 = system: OVCAR-4
HCT-116 = system: HCT-116
SNB-19 = system: SNB-19
KM12 = system: KM12
UACC-257 = system: UACC-257

Measured: GI50

C=C(C)C1CC=C(C)CC1 (configuration not stated)
inactive: 786-0 923 µM | NCI-H460 968 µM | LOX IMVI 897 µM | SF-268 944 µM | NCI-H522 989 µM | HL-60 817 µM | U-251 787 µM | SK-OV-3 1140 µM | OVCAR-8 1040 µM | SK-MEL-5 849 µM | RXF 393 982 µM | OVCAR-4 964 µM | HCT-116 923 µM | SNB-19 906 µM | KM12 1020 µM | UACC-257 927 µM

O=C(CC(=O)c1ccccc1)C(=O)NC12CC3CC(CC(C3)C1)C2
inactive: 786-0 > 56.2 µM | NCI-H460 > 40.7 µM | LOX IMVI > 34.6 µM | SF-268 > 91.4 µM | NCI-H522 > 83.4 µM | HL-60 > 48.5 µM | U-251 > 88.9 µM | SK-OV-3 > 100 µM | OVCAR-8 > 100 µM | SK-MEL-5 > 100 µM | RXF 393 > 31.9 µM | OVCAR-4 > 100 µM | HCT-116 > 64.1 µM | SNB-19 > 100 µM | KM12 > 100 µM | UACC-257 > 100 µM

CC(=O)/C(=C\c1ccccc1)C(=O)Nc1ccccc1
inactive: 786-0 > 100 µM | NCI-H460 > 100 µM | LOX IMVI > 100 µM | SF-268 > 100 µM | NCI-H522 > 100 µM | HL-60 > 100 µM | U-251 > 100 µM | SK-OV-3 > 100 µM | OVCAR-8 > 100 µM | SK-MEL-5 > 100 µM | RXF 393 > 100 µM | OVCAR-4 > 100 µM | HCT-116 > 100 µM | SNB-19 > 100 µM | KM12 > 100 µM | UACC-257 > 100 µM

Cc1cccc(N2C(=O)C(Cl)=C(Cl)C2=O)c1
inactive: 786-0 > 54.1 µM | NCI-H460 > 100 µM | LOX IMVI > 100 µM | SF-268 97.3 µM | NCI-H522 8.91 µM | HL-60 > 100 µM | U-251 > 100 µM | SK-OV-3 > 100 µM | OVCAR-8 > 100 µM | SK-MEL-5 > 100 µM | RXF 393 16.5 µM | OVCAR-4 > 46.3 µM | HCT-116 38.6 µM | SNB-19 > 100 µM | KM12 > 100 µM | UACC-257 > 100 µM

CCN(CC)CCC1(C2CCCCC2)CCC(=O)NC1=O (configuration not stated)
inactive: 786-0 > 100 µM | NCI-H460 > 100 µM | LOX IMVI > 100 µM | SF-268 > 100 µM | NCI-H522 > 100 µM | U-251 > 100 µM | SK-OV-3 > 100 µM | OVCAR-8 > 100 µM | SK-MEL-5 > 100 µM | RXF 393 > 100 µM | OVCAR-4 > 100 µM | HCT-116 > 100 µM | SNB-19 > 100 µM | KM12 > 100 µM | UACC-257 > 100 µM

N=C(N)NS(=O)(=O)c1ccc(NC(=O)c2cccc3c(N)c4ccccc4nc23)cc1
inactive: 786-0 > 100 µM | NCI-H460 > 100 µM | LOX IMVI > 100 µM | SF-268 > 100 µM | NCI-H522 > 100 µM | U-251 99.8 µM | SK-OV-3 > 100 µM | OVCAR-8 > 100 µM | SK-MEL-5 > 100 µM | RXF 393 > 100 µM | OVCAR-4 > 100 µM | HCT-116 > 100 µM | SNB-19 26.7 µM | KM12 8.57 µM | UACC-257 > 100 µM

CCOc1cc2c(C(=O)CC)c(O)ccc2o1
inactive: 786-0 > 100 µM | NCI-H460 > 100 µM | LOX IMVI > 100 µM | SF-268 > 100 µM | NCI-H522 > 100 µM | HL-60 12.9 µM | U-251 > 100 µM | SK-OV-3 > 48.1 µM | OVCAR-8 > 79.6 µM | SK-MEL-5 > 39.3 µM | RXF 393 > 45.1 µM | OVCAR-4 > 40.8 µM | HCT-116 > 48 µM | SNB-19 > 100 µM | KM12 > 100 µM | UACC-257 > 100 µM

COc1cc2cnc3c4cc(O)ccc4ccc3c2cc1OC
inactive: 786-0 61.8 µM | NCI-H460 > 100 µM | LOX IMVI 42.6 µM | SF-268 23.6 µM | NCI-H522 15.6 µM | HL-60 33.2 µM | U-251 10.8 µM | SK-OV-3 > 100 µM | OVCAR-8 23.6 µM | SK-MEL-5 > 100 µM | RXF 393 46.5 µM | OVCAR-4 26.7 µM | HCT-116 > 100 µM | SNB-19 30.7 µM | KM12 51.4 µM | UACC-257 56.6 µM

CCCCCCCCCCCCCS(=O)(=O)NCC(N)=O
inactive: 786-0 > 100 µM | NCI-H460 > 100 µM | LOX IMVI > 100 µM | SF-268 > 100 µM | NCI-H522 > 100 µM | HL-60 > 100 µM | U-251 > 100 µM | SK-OV-3 > 100 µM | OVCAR-8 > 100 µM | SK-MEL-5 > 100 µM | RXF 393 > 100 µM | OVCAR-4 > 100 µM | HCT-116 > 100 µM | SNB-19 > 100 µM | KM12 > 100 µM | UACC-257 > 100 µM
